Results: patent US5223421A, “Identification of methionine Nα-acetyltransferase” (The General Hospital Corporation, priority 1990, dated 1993)
“And” between values parts separate entries of the source, which are not always exact repeats. Identical values can stand only once. “Also recorded” adds a separate entry of the source. Like-named read-outs stand apart in the source and are kept apart here.

Tests used:
yeast N^α AT = biological target: T1, yeast N^α AT (Saccharomyces cerevisiae, UniProt P07347+P12945); experiment: Effect of ions and reagents on yeast N^α AT (comparison in the discussion); type: biochemical
T1 sequence (P12945 2-854 limits assumed): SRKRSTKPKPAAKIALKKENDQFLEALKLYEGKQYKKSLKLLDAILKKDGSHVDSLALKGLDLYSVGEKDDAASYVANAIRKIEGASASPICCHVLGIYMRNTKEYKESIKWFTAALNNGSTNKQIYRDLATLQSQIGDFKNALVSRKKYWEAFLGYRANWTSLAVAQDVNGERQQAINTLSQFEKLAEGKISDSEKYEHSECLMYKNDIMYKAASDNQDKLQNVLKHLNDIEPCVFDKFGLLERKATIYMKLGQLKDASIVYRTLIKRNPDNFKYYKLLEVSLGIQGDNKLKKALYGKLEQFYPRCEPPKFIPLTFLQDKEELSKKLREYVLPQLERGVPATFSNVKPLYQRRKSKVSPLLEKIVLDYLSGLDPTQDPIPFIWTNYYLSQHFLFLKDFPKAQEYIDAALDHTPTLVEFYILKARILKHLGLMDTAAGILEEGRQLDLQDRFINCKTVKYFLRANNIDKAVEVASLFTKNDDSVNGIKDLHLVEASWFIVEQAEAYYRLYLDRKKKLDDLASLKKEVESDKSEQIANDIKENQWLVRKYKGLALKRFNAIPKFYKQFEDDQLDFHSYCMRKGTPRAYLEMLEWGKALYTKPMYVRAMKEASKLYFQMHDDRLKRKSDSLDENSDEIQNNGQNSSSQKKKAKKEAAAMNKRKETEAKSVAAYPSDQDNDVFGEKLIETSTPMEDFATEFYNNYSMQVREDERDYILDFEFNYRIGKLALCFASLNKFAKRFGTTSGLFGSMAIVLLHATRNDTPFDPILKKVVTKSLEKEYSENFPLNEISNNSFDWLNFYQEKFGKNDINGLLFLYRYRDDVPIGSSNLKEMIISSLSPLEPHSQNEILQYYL
T1 sequence (P07347 1-238): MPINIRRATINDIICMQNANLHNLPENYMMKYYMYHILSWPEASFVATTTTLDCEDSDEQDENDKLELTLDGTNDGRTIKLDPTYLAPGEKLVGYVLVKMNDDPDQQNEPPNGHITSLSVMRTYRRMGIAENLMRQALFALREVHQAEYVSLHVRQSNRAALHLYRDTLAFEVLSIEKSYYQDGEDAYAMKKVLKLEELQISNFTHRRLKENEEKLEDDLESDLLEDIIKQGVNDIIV

[1] = test system: methionine N^α -acetyltransferase from S. cerevisiae; experiment: Effect of protein modification reagents on enzyme activity; type: biochemical, Saccharomyces cerevisiae
Protocol: (§1) N^α -acetyltransferase activity was determined as previously described [Lee et al., J. Biol. Chem. 263:14948-14955 (1988)]. Aliquots of the lysate or chromatographic fractions were added to 1.5 ml Eppendorf tubes containing a reaction mixture of 50 mM HEPES, pH 7.4, 150 mM KCl, 1 mM DTT, 25 μM [^3 H] acetyl coenzyme A (0.5 μCi) and 50 μM synthetic peptide with an adjusted final volume of 100 μl. The assay mixture was incubated at 30° C. for 30 min. The reaction was stopped by adding 17 μl of 0.5M acetic acid and chilled in an ice bath. The reaction samples were filtered through SP membrane discs (Cuno) (previously pre-swollen in 0.5M acetic acid), and then washed three times with 1 ml of 0.5M acetic acid on a Millipore 1225 sampling manifold. The partially dried membranes were placed in scintillation cocktail and counted with a Beckman LS 3801 scintillation counter. One unit of activity was defined as the amount of enzyme able to transfer 1 pmol of [^3 H] acetyl group from [^3 H] acetyl coenzyme A to synthetic peptide per min under standard enzyme assay conditions defined above.
In order to determine the possible catalytic role for different types of amino acid residues in the enzyme, various chemical modifications were carried out (Table 10). Yeast methionine acetyltransferase was incubated with each reagent at 30° C. for 15 min, dialyzed against 50 mM HEPES, pH 7.4, 150 mM, 1 mM DTT at 4° C. for 3 to 4 hr. The enzyme activity was determined under standard assay conditions using PAI (N=3), assayed as described above.

[2] = test system: methionine N^α -acetyltransferase from S. cerevisiae; type: biochemical, Saccharomyces cerevisiae; settings: for effect of ion or salt on M-N^α AT activity: concentration not given; for Enzyme Activity (%): 5 min room temperature, 50 mM HEPES pH 7.4, 1 mM DTT, substrate PAI (N=3)
Protocol: as §1, with “counter.” for “counter. One unit of activity was defined as the amount of enzyme able to transfer 1 pmol of [^3 H] acetyl group from [^3 H] acetyl coenzyme A to synthetic peptide per min under standard enzyme assay conditions defined above.”
Yeast methionine acetyltransferase was incubated in the presence of various divalent cations at a room temperature for 5 min in 50 mM HEPES, pH 7.4 containing 1 mM DTT. The enzyme activity was determined under standard assay conditions using PAI (N=3), as described above.

[3] = test system: yeast M-N^α -acetyltransferase; experiment: Effect of KCl or NaCl on enzyme activity; type: biochemical, Saccharomyces cerevisiae; settings: for reduction in enzyme activity: enzyme assay performed at 0.8M, 800000 µM; for effect on enzyme activity: up to 0.5M in the assay
Protocol: as §1

[4] = biological target: T2, N^α -acetyltransferase activity of crude yeast lysate, aaa1 mutant strain T3A-a (Saccharomyces cerevisiae, UniProt Q06504); experiment: N^α -acetylation of peptide substrates by crude yeast lysate, aaa1 mutant strain; type: biochemical; settings: crude lysate of aaa1 mutant strain T3A-a; mean ± SD (N=3-5); normalized to human adrenocorticotropic hormone (1-24); 50 μM peptide
T2 construct: a crude yeast homogenate from the aaa1 mutant strain; endogenous in cells; host or cells: Saccharomyces cerevisiae strain T3A-a (aaa1), crude lysate
T2 sequence (Q06504 1-195): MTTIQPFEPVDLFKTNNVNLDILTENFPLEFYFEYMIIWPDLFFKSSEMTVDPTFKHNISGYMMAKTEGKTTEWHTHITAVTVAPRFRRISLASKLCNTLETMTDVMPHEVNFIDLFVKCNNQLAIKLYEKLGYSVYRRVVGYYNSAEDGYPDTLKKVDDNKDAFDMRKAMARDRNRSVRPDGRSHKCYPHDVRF
T2 sequence (Q12387 1-796 partner): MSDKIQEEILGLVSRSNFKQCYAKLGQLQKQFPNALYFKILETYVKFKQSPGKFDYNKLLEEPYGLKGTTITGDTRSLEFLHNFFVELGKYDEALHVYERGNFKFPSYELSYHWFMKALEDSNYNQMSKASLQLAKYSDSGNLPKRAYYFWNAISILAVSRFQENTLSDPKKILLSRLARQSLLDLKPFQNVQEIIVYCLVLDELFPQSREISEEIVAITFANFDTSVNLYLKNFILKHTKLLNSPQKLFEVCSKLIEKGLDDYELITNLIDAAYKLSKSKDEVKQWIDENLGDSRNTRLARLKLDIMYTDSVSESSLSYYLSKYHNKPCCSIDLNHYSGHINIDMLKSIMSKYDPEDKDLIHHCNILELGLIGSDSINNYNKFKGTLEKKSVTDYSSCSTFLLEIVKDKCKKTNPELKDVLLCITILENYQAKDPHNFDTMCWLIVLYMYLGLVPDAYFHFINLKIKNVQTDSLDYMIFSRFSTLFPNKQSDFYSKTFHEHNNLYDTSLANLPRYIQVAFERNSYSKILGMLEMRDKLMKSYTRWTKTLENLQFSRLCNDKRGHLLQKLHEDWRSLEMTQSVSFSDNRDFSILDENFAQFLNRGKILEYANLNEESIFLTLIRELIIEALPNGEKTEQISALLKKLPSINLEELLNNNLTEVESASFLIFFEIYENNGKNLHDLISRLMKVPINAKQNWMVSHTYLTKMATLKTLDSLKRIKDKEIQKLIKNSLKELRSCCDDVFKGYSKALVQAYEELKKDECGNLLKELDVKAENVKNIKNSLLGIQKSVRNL
Protocol: as §1
(§2) The wild-type (containing endogenous N^α -acetyltransferase activity) and the aaa1 (lacking endogenous N^α -acetyltransferase activity) strains were T3A and T3A-a, respectively (Lee, F-J. S., et al., J. Bacteriol. 171, 5795-5802 (1989)). Human adrenocorticotropic hormone (1-24), yeast alcohol dehydrogenase (1-24), and human superoxide dismutase (1-24) have either serine or alanine as amino-terminal residues, while proteinase A inhibitor 3 has a methionine residue. The synthesis of the peptide substrates, the preparation of the crude yeast homogenate, and the assay of enzyme activity were as previously described by Lee et al. (Lee, F-J. S., et al., J. Biol. Chem. 263:14948 (1988); Kamitani, K., et al., J. Biol. Chem. 264:13188 (1989)). The numbers in parentheses refer to the residue numbers, and the letters in parentheses specify the amino acid sequence. Abbreviations: A (alanine), C (cysteine), D (aspartic acid), E (glutamic acid), F (phenylalanine), G (glycine), H (histidine), I (isoleucine), K (lysine), L (leucine), M (methionine), N (asparagine), P (proline), Q (glutamine), R (arginine), S (serine), T (threonine), V (valine), W (tryptophan). Data are reported as mean activity±SD (N=3-5) and are normalized to the activity of the homogenate towards human adrenocorticotropic hormone (1-24).

[5] = test system: N^α -acetyltransferase activity of crude yeast lysate, wild-type (AAA1) strain T3A; experiment: N^α -acetylation of peptide substrates by crude yeast lysate, wild-type strain; type: biochemical, Saccharomyces cerevisiae; settings: crude lysate of wild-type strain T3A; mean ± SD (N=3-5); normalized to human adrenocorticotropic hormone (1-24); 50 μM peptide
Protocol: as §1, §2

[6] = reagent 10.0 mM, 30° C. 15 min, then dialyzed, substrate PAI (N=3)
[7] = reagent 1.0 mM, 30° C. 15 min, then dialyzed, substrate PAI (N=3)

OCCS [2-mercaptoethanol]
effect of reagent on N^α AT activity (yeast N^α AT): inability
effect of reagent on M-N^α AT activity ([1]; concentration not given): did not affect the enzyme activity
effect of reagent on M-N^α AT activity ([1]; concentration not given, listed as β-mercaptoethanol): inability
Enzyme Activity (%) [1, 6]: 96%

O=S(=O)([O-])[O-].[Cu+2] [CuSO4]
effect of ion or salt on M-N^α AT activity ([2]; listed as Cu^2+): pronounced and concentration-dependent inhibition; also recorded: inhibited markedly
Enzyme Activity (%) ([2]; salt 0.1 mM): 65%
Enzyme Activity (%) ([2]; salt 1 mM): 0%
effect of ion on N^α AT activity (yeast N^α AT): inhibited markedly

OC(CS)C(O)CS (stereo not shown) [DTT]
effect of reagent on N^α AT activity (yeast N^α AT): inability
effect of reagent on M-N^α AT activity ([1]; concentration not given): did not affect the enzyme activity; also recorded: inability
Enzyme Activity (%) [1, 6]: 95%

O=C(O)CI [IAA, iodoacetic acid]
effect of reagent on N^α AT activity (yeast N^α AT): inability
Enzyme Activity (%) [1]: 102% and 75%

NC(=O)CI [IAM, iodoacetamide]
effect of reagent on N^α AT activity (yeast N^α AT): inability
effect of reagent on M-N^α AT activity ([1]; 1 mM): without effect
effect of reagent on M-N^α AT activity ([1]; 10 mM): partial inactivation
effect of reagent on M-N^α AT activity ([1]; concentration not given): inability
Enzyme Activity (%) [1, 7]: 100%
Enzyme Activity (%) [1, 6]: 86%

[Cl-].[K+] [KCl]
reduction in enzyme activity [3]: 50%
effect on enzyme activity [3]: did not affect the enzyme activity

CCN1C(=O)C=CC1=O [NEM, N-ethylmaleimide]
effect of reagent on N^α AT activity (yeast N^α AT): inability
effect of reagent on M-N^α AT activity ([1]; 0.5 mM): partial inactivation
effect of reagent on M-N^α AT activity ([1]; concentration not given): inability
Enzyme Activity (%) ([1]; reagent 0.5 mM, 30° C. 15 min, then dialyzed, substrate PAI (N=3)): 77%
Enzyme Activity (%) ([1]; reagent 5.0 mM, 30° C. 15 min, then dialyzed, substrate PAI (N=3)): 20%

[Cl-].[Na+] [NaCl]
reduction in enzyme activity [3]: 50%
effect on enzyme activity [3]: did not affect the enzyme activity

O=S(=O)([O-])[O-].[Zn+2] [ZnSO4]
effect of ion or salt on M-N^α AT activity ([2]; listed as Zn^2+): pronounced and concentration-dependent inhibition; also recorded: inhibited markedly
Enzyme Activity (%) ([2]; salt 0.01 mM): 95%
Enzyme Activity (%) ([2]; salt 0.1 mM): 52%
Enzyme Activity (%) ([2]; salt 1 mM): 0%
effect of ion on N^α AT activity (yeast N^α AT): inhibited markedly

Cl [chloride ion]
effect of ion or salt on M-N^α AT activity [2]: neither M-N^α AT nor N^α AT were activated
effect of ion on N^α AT activity (yeast N^α AT): neither M-N^α AT nor N^α AT were activated

O=C(O)c1cc[c]([Hg][Cl])cc1 [pCMB, p-chloromercuribenzoate]
effect of reagent on N^α AT activity (yeast N^α AT): inability
effect of reagent on M-N^α AT activity ([1]; 1 mM): without effect
effect of reagent on M-N^α AT activity ([1]; 10 mM): partial inactivation
effect of reagent on M-N^α AT activity ([1]; concentration not given): inability
Enzyme Activity (%) [1, 7]: 94%
Enzyme Activity (%) [1, 6]: 25%

ATKAVCVLKGDGPVQGSINFEQKE (ATKAVCVLKGDGPVQGSINFEQKE) [Superoxide dismutase (1-24) (Human)]
Activity (%) aaa1 [4]: 0%
Activity (%) AAA1 [5]: 80 ± 6%
